According to ChEMBL document CHEMBL3259797, “Radiosyntheses and in vivo evaluation of carbon-11 PET tracers for PDE10A in the brain of rodent and nonhuman primate” (Bioorg Med Chem, 2014):

Columns and labels:
Heart [1] = test: Biodistribution in Sprague-Dawley rat heart at 14.8 to 18.5 MBq, iv measured at 60 mins post-injection by gamma counting analysis; type: ADME, organism-based; conditions: in vivo, 1 h
[2] = Drug metabolism in iv dosed cynomolgus monkey plasma assessed as compound remaining measured at 2 mins post-injection by HPLC analysis; type: ADME, organism-based, Macaca fascicularis; conditions: read-out: Stability
Muscle tissue = test: Biodistribution in Sprague-Dawley rat muscle at 14.8 to 18.5 MBq, iv measured at 5 mins post-injection by gamma counting analysis; type: ADME, organism-based; conditions: in vivo
Heart [3] = test: Biodistribution in Sprague-Dawley rat heart at 14.8 to 18.5 MBq, iv measured at 5 mins post-injection by gamma counting analysis; type: ADME, organism-based; conditions: in vivo
Striatum [4] = test: Biodistribution in Sprague-Dawley rat striatum at 14.8 to 18.5 MBq, iv treated with MP-10 for 5 mins prior to compound administration measured at 30 mins post-injection by gamma counting analysis; type: ADME, organism-based; conditions: in vivo, 0.5 h
Kidney [5] = test: Biodistribution in Sprague-Dawley rat kidney at 14.8 to 18.5 MBq, iv measured at 5 mins post-injection by gamma counting analysis; type: ADME, organism-based; conditions: in vivo
[6] = Drug recovery in iv dosed cynomolgus monkey arterial blood assessed as radiometabolite level measured at 60 mins post-injection by HPLC analysis; type: ADME, organism-based, Macaca fascicularis; conditions: in vivo, 1 h
Cerebellum = test: Biodistribution in Sprague-Dawley rat cerebellum at 14.8 to 18.5 MBq, iv measured at 30 mins post-injection by gamma counting analysis; type: ADME, organism-based; conditions: in vivo, 0.5 h
[7] = Drug recovery in iv dosed cynomolgus monkey arterial blood measured at 60 mins post-injection by HPLC analysis; type: ADME, organism-based, Macaca fascicularis; conditions: in vivo, 1 h
Kidney [8] = test: Biodistribution in Sprague-Dawley rat kidney at 14.8 to 18.5 MBq, iv treated with MP-10 for 5 mins prior to compound administration measured at 30 mins post-injection by gamma counting analysis; type: ADME, organism-based; conditions: in vivo, 0.5 h
Nucleic Acid [9] = test: Ratio of drug level in striatum to cerebellum in cynomolgus monkey at 260 to 370 MBq, iv measured at 80 mins post-injection by microPET analysis; type: ADME, organism-based, Macaca fascicularis; conditions: in vivo
Rattus norvegicus = test: Biodistribution in Sprague-Dawley rat fat at 14.8 to 18.5 MBq, iv measured at 60 mins post-injection by gamma counting analysis; type: ADME, organism-based, Adipose tissue; conditions: in vivo, 1 h
Liver [10] = test: Biodistribution in Sprague-Dawley rat liver at 14.8 to 18.5 MBq, iv measured at 5 mins post-injection by gamma counting analysis; type: ADME, organism-based; conditions: in vivo
Plasma [11] = test: Drug metabolism in iv dosed cynomolgus monkey plasma assessed as retention time of hydrophilic metabolite by HPLC analysis; type: ADME, organism-based, Macaca fascicularis; conditions: in vivo
[12] = Biodistribution in cynomolgus monkey striatum at 260 to 370 MBq, iv measured at 30 mins post-injection by microPET analysis; type: ADME, organism-based, Macaca fascicularis; conditions: in vivo, 0.5 h
Blood = test: Biodistribution in Sprague-Dawley rat blood at 14.8 to 18.5 MBq, iv measured at 30 mins post-injection by gamma counting analysis; type: ADME, organism-based; conditions: in vivo, 0.5 h
Heart [13] = test: Biodistribution in Sprague-Dawley rat heart at 14.8 to 18.5 MBq, iv measured at 30 mins post-injection by gamma counting analysis; type: ADME, organism-based; conditions: in vivo, 0.5 h
Liver [14] = test: Biodistribution in Sprague-Dawley rat liver at 14.8 to 18.5 MBq, iv measured at 30 mins post-injection by gamma counting analysis; type: ADME, organism-based; conditions: in vivo, 0.5 h
Brain = test: Biodistribution in cynomolgus monkey middle brain at 260 to 370 MBq, iv measured at 20 to 100 mins post-injection by microPET analysis; type: ADME, organism-based, Macaca fascicularis; conditions: in vivo
Striatum [15] = test: Biodistribution in Sprague-Dawley rat striatum at 14.8 to 18.5 MBq, iv measured at 5 mins post-injection by gamma counting analysis; type: ADME, organism-based; conditions: in vivo
Lung = test: Biodistribution in Sprague-Dawley rat lung at 14.8 to 18.5 MBq, iv measured at 5 mins post-injection by gamma counting analysis; type: ADME, organism-based; conditions: in vivo
Occipital cortex = test: Biodistribution in cynomolgus monkey occipital cortex at 260 to 370 MBq, iv measured at 20 to 100 mins post-injection by microPET analysis; type: ADME, organism-based, Macaca fascicularis; conditions: in vivo
Plasma [16] = test: Drug recovery in iv dosed cynomolgus monkey plasma measured at 30 mins post-injection by HPLC analysis; type: ADME, organism-based, Macaca fascicularis; conditions: in vivo, 0.5 h
Nucleic Acid [17] = test: Ratio of drug level in striatum to cerebellum in cynomolgus monkey at 260 to 370 MBq, iv measured at 30 mins post-injection by microPET analysis; type: ADME, organism-based, Macaca fascicularis; conditions: in vivo, 0.5 h
Nucleic Acid [18] = test: Ratio of drug level in striatum to cerebellum in cynomolgus monkey at 260 to 370 MBq, iv measured at 25 mins post-injection by microPET analysis; type: ADME, organism-based, Macaca fascicularis; conditions: in vivo
[19] = Drug metabolism in iv dosed cynomolgus monkey plasma assessed as compound remaining measured at 60 mins post-injection by HPLC analysis; type: ADME, organism-based, Macaca fascicularis; conditions: read-out: Stability
[20] = Drug metabolism in iv dosed cynomolgus monkey plasma measured at 60 mins post-injection by HPLC analysis; type: ADME, organism-based, Macaca fascicularis; conditions: read-out: Drug metabolism
[21] = Drug metabolism in iv dosed cynomolgus monkey plasma assessed as compound remaining measured at 30 mins post-injection by HPLC analysis; type: ADME, organism-based, Macaca fascicularis; conditions: read-out: Stability
[22] = Biodistribution in cynomolgus monkey striatum at 260 to 370 MBq, iv measured at 25 mins post-injection by microPET analysis; type: ADME, organism-based, Macaca fascicularis; conditions: in vivo
Plasma [23] = test: Drug metabolism in iv dosed cynomolgus monkey plasma assessed as compound remaining by HPLC analysis; type: ADME, organism-based, Macaca fascicularis; conditions: in vivo

**Q.** With `Cn1cc(-c2ccncc2)c(-c2ccc(OCc3nc4ccccc4cc3O[11CH3])cc2)n1` as the compound, how does the Drug uptake (Heart [1]) read?
**A.** Its Drug uptake is 0.199 % ID/g.

**Q.** And the remaining at 2 min [2]?
**A.** The remaining at 2 min was 97%.

**Q.** What about the Drug uptake (Muscle tissue) of the same compound?
**A.** The Drug uptake was 0.412 % ID/g.

**Q.** And the Drug uptake (Heart [3])?
**A.** The Drug uptake was 0.733 % ID/g.

**Q.** What about the Drug uptake (Striatum [4]) of the same compound?
**A.** Its Drug uptake is 0.294 % ID/g.

**Q.** What about the Drug uptake (Kidney [5]) of the same compound?
**A.** Its Drug uptake is 4.354 % ID/g.

**Q.** What about the Drug recovery [6] of the same compound?
**A.** Its Drug recovery is 30%.

**Q.** What about the Drug uptake (Cerebellum) of the same compound?
**A.** Its Drug uptake is 0.097 % ID/g.

**Q.** What about the Drug recovery [7] of the same compound?
**A.** Its Drug recovery is 65%.

**Q.** What about the Drug uptake (Kidney [8]) of the same compound?
**A.** The Drug uptake was 1.523 % ID/g.

**Q.** And the Ratio (Nucleic Acid [9])?
**A.** The Ratio was 4.5.

**Q.** What about the Drug uptake (Rattus norvegicus) of the same compound?
**A.** The Drug uptake was 0.5 % ID/g.

**Q.** And the Drug uptake (Liver [10])?
**A.** Its Drug uptake is 11.005 % ID/g.

**Q.** And the Retention_time (Plasma [11])?
**A.** Its Retention_time is 3 min.

**Q.** What about the SUV [12] of the same compound?
**A.** Its SUV is 1.8.

**Q.** And the Drug uptake (Blood)?
**A.** The Drug uptake was 0.321 % ID/g.

**Q.** And the Drug uptake (Heart [13])?
**A.** Its Drug uptake is 0.296 % ID/g.

**Q.** And the Drug uptake (Liver [14])?
**A.** The Drug uptake was 7.345 % ID/g.

**Q.** And the Drug uptake (Brain)?
**A.** The Drug uptake was “Active”.

**Q.** And the Drug uptake (Striatum [15])?
**A.** Its Drug uptake is 0.488 % ID/g.

**Q.** And the Drug uptake (Lung)?
**A.** The Drug uptake was 1.602 % ID/g.

**Q.** What about the Drug uptake (Occipital cortex) of the same compound?
**A.** The Drug uptake was “Active”.

**Q.** And the Drug recovery (Plasma [16])?
**A.** The Drug recovery was 82%.

**Q.** And the Ratio (Nucleic Acid [17])?
**A.** Its Ratio is 3.5.

**Q.** With `Cn1cc(-c2ccncc2)c(-c2ccc(OCc3cc(O[11CH3])c4ccccc4n3)cc2)n1` as the compound, how does the Drug uptake (Heart [1]) read?
**A.** Its Drug uptake is 0.121 % ID/g.

**Q.** What about the Ratio (Nucleic Acid [18]) of the same compound?
**A.** Its Ratio is 2.7.

**Q.** What about the Drug uptake (Muscle tissue) of the same compound?
**A.** The Drug uptake was 0.258 % ID/g.

**Q.** And the remaining at 1 h [19]?
**A.** The remaining at 1 h was 42%.

**Q.** What about the Drug uptake (Heart [3]) of the same compound?
**A.** The Drug uptake was 0.464 % ID/g.

**Q.** What about the Drug uptake (Striatum [4]) of the same compound?
**A.** The Drug uptake was 0.175 % ID/g.

**Q.** And the metabolised at 1 h [20]?
**A.** The metabolised at 1 h was 42%.

**Q.** And the remaining at 0.5 h [21]?
**A.** Its remaining at 0.5 h is 60%.

**Q.** What about the Drug uptake (Kidney [5]) of the same compound?
**A.** Its Drug uptake is 2.34 % ID/g.

**Q.** What about the Drug uptake (Cerebellum) of the same compound?
**A.** Its Drug uptake is 0.066 % ID/g.

**Q.** What about the Drug uptake (Kidney [8]) of the same compound?
**A.** Its Drug uptake is 1.072 % ID/g.

**Q.** And the Drug uptake [22]?
**A.** Its Drug uptake is “Active”.

**Q.** And the Drug uptake (Rattus norvegicus)?
**A.** The Drug uptake was 0.278 % ID/g.

**Q.** What about the Drug uptake (Liver [10]) of the same compound?
**A.** The Drug uptake was 7.08 % ID/g.

**Q.** What about the Retention_time (Plasma [11]) of the same compound?
**A.** The Retention_time was 3 min.

**Q.** And the Stability (Plasma [23])?
**A.** Its Stability is 85%.

**Q.** And the Drug uptake (Blood)?
**A.** The Drug uptake was 0.192 % ID/g.

**Q.** And the Drug uptake (Heart [13])?
**A.** The Drug uptake was 0.187 % ID/g.

**Q.** What about the Drug uptake (Liver [14]) of the same compound?
**A.** Its Drug uptake is 10.085 % ID/g.

**Q.** And the Drug uptake (Brain)?
**A.** Its Drug uptake is “Active”.

**Q.** And the Drug uptake (Striatum [15])?
**A.** Its Drug uptake is 0.352 % ID/g.

**Q.** What about the Drug uptake (Lung) of the same compound?
**A.** The Drug uptake was 0.89 % ID/g.

**Q.** And the Drug uptake (Occipital cortex)?
**A.** The Drug uptake was “Active”.
